Results from DBAASP.
In brackets after ≈: the same amount, converted by molar mass.

What was measured:
Assay in all cases: ≥ marks a high value that may be exact or a test limit, other limits are often not marked, values filed in µg/mL are converted to µM
[1] = system: Bacillus subtilis ATCC 62037
[2] = system: Candida albicans ATCC 10231
[3] = system: Cryptococcus neoformans ATCC 34881
[4] = system: Escherichia coli ATCC 27325
[5] = system: Pseudomonas putida ATCC 17426
[6] = system: Saccharomyces cerevisiae ATCC 44774
[7] = system: Salmonella enterica subsp. enterica serovar Enteritidis ATCC 13076
[8] = system: Staphylococcus aureus ATCC 15752
[9] = system: Streptococcus mutans ATCC 25175
[10] = system: Micrococcus luteus DSM 20030

| SMILES | MIC [1] | MIC [2] | MIC [3] | MIC [4] | MIC [5] | MIC [6] | MIC [7] | MIC [8] | MIC [9] | MIC [10] |
| --- | --- | --- | --- | --- | --- | --- | --- | --- | --- | --- |
| CC[C@H](C)[C@H](NC(=O)CNC(=O)[C@H](CCCCN)NC(=O)[C@H](CCCCN)NC(=O)[C@H](CCC(N)=O)NC(=O)[C@H](CC(C)C)NC(=O)[C@H](CCSC)NC(=O)[C@@H](NC(=O)[C@H](CCC(=O)O)NC(=O)CNC(=O)[C@@H](NC(=O)[C@H](Cc1ccccc1)NC(=O)[C@H](C)NC(=O)[C@H](CCCCN)NC(=O)CNC(=O)[C@H](Cc1ccccc1)NC(=O)[C@H](CCCCN)NC(=O)[C@H](CCCCN)NC(=O)[C@H](C)NC(=O)[C@H](CO)NC(=O)[C@H](Cc1cnc[nH]1)NC(=O)[C@H](CCSC)NC(=O)[C@H](C)NC(=O)[C@H](CCCCN)NC(=O)[C@@H]1CCCN1C(=O)[C@H](C)N)C(C)C)[C@@H](C)CC)C(=O)O [APKAMHSAKKFGKAFVGEIMLQKKGI] | 22.7 µM (≈ 64 µg/mL) | 11.4 µM (≈ 32 µg/mL) | 5.68 µM (≈ 16 µg/mL) | 22.7 µM (≈ 64 µg/mL) | 22.7 µM (≈ 64 µg/mL) | 11.4 µM (≈ 32 µg/mL) | 11.4 µM (≈ 32 µg/mL) | 22.7 µM (≈ 64 µg/mL) | ≥ 45.4 µM | – |
| CC[C@H](C)[C@H](N)C(=O)N[C@@H](CO)C(=O)N[C@@H](CCC(N)=O)C(=O)N[C@@H](CO)C(=O)N[C@@H](CC(=O)O)C(=O)N[C@@H](C)C(=O)N[C@H](C(=O)N[C@@H](CC(C)C)C(=O)N[C@@H](CO)C(=O)N[C@@H](C)C(=O)N[C@H](C(=O)N[C@@H](Cc1c[nH]c2ccccc12)C(=O)N[C@@H](CO)C(=O)NCC(=O)N[C@H](C(=O)N[C@@H](CCCCN)C(=O)N[C@@H](CO)C(=O)N[C@@H](CC(C)C)C(=O)N[C@@H](Cc1ccccc1)C(N)=O)[C@@H](C)CC)[C@@H](C)CC)[C@@H](C)CC [ISQSDAILSAIWSGIKSLF] | – | – | – | – | – | – | – | – | – | 4 µM (≈ 8.14 µg/mL) |
| CC[C@H](C)[C@H](NC(=O)[C@@H]1CCCN1C(=O)[C@H](Cc1c[nH]c2ccccc12)NC(=O)[C@H](CCC(N)=O)NC(=O)[C@H](CC(C)C)NC(=O)CNC(=O)[C@H](C)NC(=O)[C@@H](N)CCCN=C(N)N)C(=O)NCC(=O)N[C@@H](CCCN=C(N)N)C(=O)N[C@@H](CC(C)C)C(=O)N[C@@H](CC(C)C)C(=O)N[C@@H](CCCN=C(N)N)C(=O)N[C@@H](CCCN=C(N)N)C(=O)N[C@@H](CC(C)C)C(=O)N[C@@H](CC(C)C)C(=O)N[C@@H](CCCN=C(N)N)C(=O)N[C@@H](CCCN=C(N)N)C(=O)N[C@@H](CC(C)C)C(=O)N[C@@H](CC(C)C)C(=O)N[C@@H](CCCN=C(N)N)C(=O)O [RAGLQWPIGRLLRRLLRRLLR] | 0.765 µM (≈ 2 µg/mL) | 0.765 µM (≈ 2 µg/mL) | 0.383 µM (≈ 1 µg/mL) | 0.383 µM (≈ 1 µg/mL) | 0.765 µM (≈ 2 µg/mL) | 0.765 µM (≈ 2 µg/mL) | 0.765 µM (≈ 2 µg/mL) | 0.383 µM (≈ 1 µg/mL) | 0.765 µM (≈ 2 µg/mL) | – |
